Experimental data from US20240246960A1 (adMare Therapeutics Society, priority 2021, published 2024).
Read-outs that look alike come from different tables or passages of the source.

Columns and labels:
DNA-PK = molecular target: T1, DNA-PK (Homo sapiens, UniProt P78527); test: DNA-PK Assay for Biochemical Enzymatic Inhibition (ADP Glo Kinase assay); settings: Table 1
T1 construct: purchased Invitrogen PR9107A
Method: A biochemical assay was performed to identify IC50 values against DNA-PK activity in a two-step reaction with a kinase reaction followed by ADP Glo™ Kinase assay Kit (Promega V9102).
Three-fold serial dilutions of compounds in DMSO were prepared in kinase assay buffer (50 mM HEPES pH 7.5, 20 mM MgCl2, 100 mM KCl, 50 μM DTT, 10 μg/ml calf thymus DNA, 0.01% Tween 20). Kinase assay buffer was used to prepare compound treatments to 0.02% DMSO (dimethyl sulphoxide) content. DMSO controls were prepared to produce a maximum and minimum luminescence signal for normalization. Substrate (Anaspec, AS-60210-5) and ATP (Promega V9102) and ATP mix was prepared by dilution in kinase assay buffer for 434.4 μM and 64.4 μM final assay concentrations, respectively. Compounds and control were added to 25 ng DNA-PK enzyme (Invitrogen, PR9107A) diluted in kinase buffer in assay plate (Corning 267459) and incubated for 15 minutes at room temperature prior to addition of substrate and ATP mix.
Throughout the assay, each time a reagent was added to the microplate, it was centrifuged for 1 minute at 1300 rcf. All reagents were added, and incubations carried out at room temperature. The reaction was then incubated for 60 minutes. ADP-ATP standards at 0, 4, 10, 40, 80, and 100% ADP (prepared as specified in the ADP Glo™ Kinase assay kit) were also added to the microplate at a volume equal to the total kinase reaction. The ADP Glo™ Kinase Assay kit was then used to quantify DNA-PK activity: following the 60-minute incubation, a 1:1 volume of ADP Glo reagent was added to all wells, then following a further 45-minute incubation, a 1:1 volume of Kinase Detection Reagent was added to all wells. After this two-step assay, plates were incubated in a Synergy-Neo2 plate reader for 30 minutes with gentle shaking, followed by endpoint luminescent read Luminescence data was normalized by subtracting the background signal and expressing all background-adjusted values as a percentage of the average maximum signal. The data was then expressed as percent inhibition by subtracting from 100% (i.e. maximum luminescent signal will be 0% inhibition) and the resulting data plotted against ten concentration points on a logarithmic scale, using GraphPad Prism. Non-linear regression analysis was performed on each concentration response curve and the log [inhibitor] vs response—variable slope (four parameters) equation was selected to generate IC50 values.

[1] = molecular target: T2, DNA-PK phosphorylation at Serine 2056 (Homo sapiens, UniProt P78527); test: Cellular Assay for Inhibition of DNA-PK Phosphorylation at Serine 2056 (FaDu cells, neocarzinostatin, sandwich ELISA); format: cell-based; settings: Table 1
T2 construct: host or cells: FaDu
Summary of the method: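 Readout was pSer2056 and total DNA-PK, measured by sandwich ELISA on protein-normalized lysates. Prior to lysis, compound was applied to FaDu cells for 1 h (0.3% DMSO), followed by 2 h of 1 μg/mL neocarzinostatin. IC50 values were fitted from log concentration versus % inhibition normalized to DMSO and NCS controls.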

[2] = molecular target: T3, pDNA-PK ser2056 induction in HCT116 spheroids (Homo sapiens, UniProt P78527); test: Multicellular tumour spheroid + radiation, pDNA-PK inhibition, HCT116; format: cell-based; settings: 20 Gy
T3 construct: endogenous in cells; host or cells: HCT116 multicellular tumour spheroids
Method: Multicellular tumour spheroids determination of compound inhibition of pDNA-PK induction following radiation. Tumour spheroids were grown to approximately 0.5 mm in diameter and irradiated with 20 Gy in combination with inhibitor test compounds to determine their potency. Inhibitor concentration for 50% reduction in pDNA-PK induction (IC50) was determined via immunohistochemical staining in spheroid cryosections taken 2 hours following radiation.
Spheroid, Cell Line: […], Immunohistochemical endpoint, pDNA-PK inhibition, EC50 in μm.
(§1) Spheroid+radiation pDNA-PK. Radiation: 20 Gy. Drug: serial dilution 5 or 10 μM down to 3.5 nM (11 wells). Spheroids: 3-6 spheroids per well (300-500 μm diameter). 20% O2 and 5% CO2. 96 well plate format.
Protocol: pre-incubate 1 hours with drug, irradiate with 20 Gy, post-incubate 2 hours with drug, freeze and cryosection ×3 replicates.
Endpoint: fluorescent immunostin pDNA-PK ser2056 and image on microscope.
Analysis: determine EC50 concentration that decreases pDNA-PK induction by 50% after radiation.
Multicellular tumour spheroids determination of compound inhibition of pDNA-PK induction following radiation. Tumour spheroids were grown to approximately 0.5 mm in diameter and irradiated with 20 Gy in combination with inhibitor test compounds to determine their potency. Inhibitor concentration for 50% reduction in pDNA-PK induction (IC50) was determined via immunohistochemical staining in spheroid cryosections taken 2 hours following radiation. For cell survival endpoint 8 Gy radiation was used and 3 hours following radiation spheroids were dissociated, counted and plated for colony forming endpoint.
as §1, with “format. Endpoint: fluorescent immunostain pDNA-PK ser2056 and image on microscope. Analysis: determine EC50 concentrations that decreases pDNA-PK induction […] after irradiation.” for “format.”
Multicellular tumour spheroids were used to determine potency of test compounds in a 3D tissue environment using inhibition of pDNA-PK induction following radiation or cell survival as the endpoint. For the pDNA-PK endpoint HCT116 or FaDU tumour spheroids were grown to approximately 0.5 mm in diameter and irradiated with 20 Gy in combination with inhibitor test compounds to determine their potency. Experiments were carried out in 96 well plates containing 0.7 mls of MEM media containing 10% FBS and 10 mM glucose under 20% O2 & 5% CO2 at 37° C. Following dilution of compounds 1:1000 from DMSO stocks, compounds were serially diluted from 10 μM down to 3.5 nM and 5-10 spheroids added. 96 well plates were constantly stirred to avoid spheroids settling during the course of the experiment. The inhibitor concentration for 50% reduction in pDNA-PK induction (EC50) was determined via immunohistochemical staining in spheroid cryosections taken 2 hours following radiation using anti-pDNA-PK (ser 2056) and fixed immediately in formalin following sectioning. For cell survival endpoint 8 Gy radiation was used and, 3 hours following radiation, spheroids were dissociated, counted and plated for colony forming endpoint. Data presented in the table compound potency as EC50 [μM].

[3] = Example 7, spheroid, cell line HCT115 [sic], 20% O2, read-out: EC50 (pDNA-PK inhibition, immunohistochemical endpoint)
[4] = Example 9 Study 2, 20% O2, read-out: Spheroid Cell line: HCT116 Immunohistochemical endpoint pDNA-PK inhibition EC50

SMILES	IC50 (DNA-PK)	IC50 [1]	EC50 [2, 3]	EC50 [2, 4]	EC50 ([2]; Example 8, spheroid, read-out: Cell line: HCT116 Immunohistochemical endpoint pDNA-PK inhibition EC50)
FC(F)(F)c1ccnc(N[C@H]2CC[C@@H](Oc3nc(N4CCOCC4)cc4ncccc34)CC2)n1 [Compound 47, N-((1s,4s)-4-((7-morpholino-1,6-naphthyridin-5-yl)oxy)cyclohexyl)-4-(trifluoromethyl)pyrimidin-2-amine]	1 to 10 nM	< 100 nM	1000 to 10000 nM	1000 to 10000 nM	
CN(C)c1ccnc(N[C@H]2CC[C@@H](Oc3nc(N4CCOCC4)cc4ncccc34)CC2)n1 [Compound 50, N4,N4-dimethyl-N2-((1s,4s)-4-((7-morpholino-1,6-naphthyridin-5-yl)oxy)cyclohexyl)pyrimidine-2,4-diamine]	0.5 to 1 nM	100 to 1000 nM	1000 to 10000 nM	1000 to 10000 nM	
c1cnc2cc(N3CCOCC3)nc(O[C@H]3CC[C@@H](Nc4ccc5nccn5n4)CC3)c2c1 [Compound 90, N-((1s,4s)-4-((7-Morpholino-1,6-naphthyridin-5-yl)oxy)cyclohexyl)imidazo[1,2-b]pyridazin-6-amine]	0.5 to 1 nM	100 to 1000 nM	1000 to 10000 nM	1000 to 10000 nM	
Cc1cc2ncnn2cc1N[C@H]1CC[C@@H](Oc2nc(N3CCOCC3)cc3ncccc23)CC1 [Compound 91, 7-Methyl-N-((1s,4s)-4-((7-morpholino-1,6-naphthyridin-5-yl)oxy)cyclohexyl)-[1,2,4]triazolo[1,5-a]pyridin-6-amine]	1 to 10 nM	1000 to 10000 nM	10000 to 100000 nM	10000 to 100000 nM	
c1cnc2cc(N3CCOCC3)nc(O[C@H]3CC[C@@H](Nc4ccc5ncnn5c4)CC3)c2c1 [Compound 92, N-((1s,4s)-4-((7-Morpholino-1,6-naphthyridin-5-yl)oxy)cyclohexyl)-[1,2,4]triazolo[1,5-a]pyridin-6-amine]	1 to 10 nM	100 to 1000 nM	1000 to 10000 nM	1000 to 10000 nM	
CCCC(=O)N[C@H]1CC[C@@H](Oc2nc(N3CCOCC3)cc3ncccc23)CC1 [Compound 103, N-((1s,4s)-4-((7-Morpholino-1,6-naphthyridin-5-yl)oxy)cyclohexyl)butyramide]	1 to 10 nM	100 to 1000 nM	10000 to 100000 nM	10000 to 100000 nM	10000 to 100000 nM

Other lines, results leading:

IC50 (DNA-PK)	IC50 [1]	EC50 [2, 3]	EC50 [2, 4]	EC50 ([2]; Example 8, spheroid, read-out: Cell line: HCT116 Immunohistochemical endpoint pDNA-PK inhibition EC50)	SMILES
< 0.5 nM	100 to 1000 nM	1000 to 10000 nM	1000 to 10000 nM		Fc1cnc(N[C@H]2CC[C@@H](Oc3nc(N4CCOCC4)cc4ncccc34)CC2)nc1 [Compound 40, 5-fluoro-N-((1s,4s)-4-((7-morpholino-1,6-naphthyridin-5-yl)oxy)cyclohexyl)pyrimidin-2-amine]
0.5 to 1 nM	100 to 1000 nM	1000 to 10000 nM	1000 to 10000 nM		Clc1cnc(N[C@H]2CC[C@@H](Oc3nc(N4CCOCC4)cc4ncccc34)CC2)nc1 [Compound 41, 5-chloro-N-((1s,4s)-4-((7-morpholino-1,6-naphthyridin-5-yl)oxy)cyclohexyl)pyrimidin-2-amine]
0.5 to 1 nM	100 to 1000 nM	1000 to 10000 nM	1000 to 10000 nM		Ic1cnc(N[C@H]2CC[C@@H](Oc3nc(N4CCOCC4)cc4ncccc34)CC2)nc1 [Compound 42, 5-iodo-N-((1s,4s)-4-((7-morpholino-1,6-naphthyridin-5-yl)oxy)cyclohexyl)pyrimidin-2-amine]
< 0.5 nM	1000 to 10000 nM	500 to 1000 nM	500 to 1000 nM		O=C(O)c1cnc(N[C@H]2CC[C@@H](Oc3nc(N4CCOCC4)cc4ncccc34)CC2)nc1 [Compound 51, 2-(((1s,4s)-4-((7-morpholino-1,6-naphthyridin-5-yl)oxy)cyclohexyl)amino)pyrimidine-5-carboxylic acid]
< 0.5 nM	100 to 1000 nM	1000 to 10000 nM	1000 to 10000 nM		Clc1nc(N[C@H]2CC[C@@H](Oc3nc(N4CCOCC4)cc4ncccc34)CC2)c2occc2n1 [Compound 80b, 2-chloro-N-((1s,4s)-4-((7-morpholino-1,6-naphthyridin-5-yl)oxy)cyclohexyl)furo[3,2-d]pyrimidin-4-amine]
